Assays:
Assay type in all cases: in vivo
[1] = tested on: Blumeria graminis f. sp. tritici; experiment: Wheat powdery mildew (ERYSGT) fungicidal activity; settings: 24 h, 1 Day Protectant, read-out: Disease Control ERYSGT 1DP
Protocol: Technical grades of materials were dissolved in acetone, which were then mixed with nine volumes of water containing 110 ppm Triton X-100. The fungicide solutions were applied onto wheat seedlings using an automated booth sprayer to run-off. All sprayed plants were allowed to air dry prior to further handling. Wheat plants (variety Yuma) were grown from seed in a greenhouse in 50% mineral soil/50% soil-less Metro mix until the first leaf was fully emerged, with 7-10 seedlings per pot. These plants were inoculated with an aqueous spore suspension of Septoria tritici either prior to or after fungicide treatments. After inoculation the plants were kept in 100% relative humidity (one day in a dark dew chamber followed by two to three days in a lighted dew chamber at 20° C.) to permit spores to germinate and infect the leaf. The plants were then transferred to a greenhouse set at 20° C. for disease to develop. When disease symptoms were fully expressed on the 1st leaves of untreated plants, infection levels were assessed on a scale of 0 to 100 percent disease severity. Percent disease control was calculated using the ratio of disease severity on treated plants relative to untreated plants. Evaluation of Fungicidal Activity: Wheat Powdery Mildew (Blumeria Graminis f. sp. Tritici; Synonym: Erysiphe graminis f. sp. Tritici; Bayer Code […]) Wheat plants (variety Yuma) were grown from seed in a greenhouse in 50% mineral soil/50% soil-less Metro mix until the first leaf was fully emerged, with 7-10 seedlings per pot. These plants were inoculated by dusting with infected stock plants 24 hr after fungicide treatments. After inoculation the plants were kept in a greenhouse set at 20° C. for disease to develop. Fungicide formulation, application and disease assessment on the sprayed leaves followed the procedures as described in the Example A.

Leptosphaeria nodorum = experiment: Wheat glume blotch (LEPTNO) fungicidal activity; settings: Parastagonospora nodorum, 24 h, 1 Day Protectant, read-out: Disease Control LEPTNO 1DP
Protocol: Technical grades of materials were dissolved in acetone, which were then mixed with nine volumes of water containing 110 ppm Triton X-100. The fungicide solutions were applied onto wheat seedlings using an automated booth sprayer to run-off. All sprayed plants were allowed to air dry prior to further handling. Wheat plants (variety Yuma) were grown from seed in a greenhouse in 50% mineral soil/50% soil-less Metro mix until the first leaf was fully emerged, with 7-10 seedlings per pot. These plants were inoculated with an aqueous spore suspension of Septoria tritici either prior to or after fungicide treatments. After inoculation the plants were kept in 100% relative humidity (one day in a dark dew chamber followed by two to three days in a lighted dew chamber at 20° C.) to permit spores to germinate and infect the leaf. The plants were then transferred to a greenhouse set at 20° C. for disease to develop. When disease symptoms were fully expressed on the 1st leaves of untreated plants, infection levels were assessed on a scale of 0 to 100 percent disease severity. Percent disease control was calculated using the ratio of disease severity on treated plants relative to untreated plants. Evaluation of Fungicidal Activity: Wheat Glume Blotch (Leptosphaeria Nodorum; Bayer Code […]) Wheat plants (variety Yuma) were grown from seed in a greenhouse in 50% mineral soil/50% soil-less Metro mix until the first leaf was fully emerged, with 7-10 seedlings per pot. These plants were inoculated with an aqueous spore suspension of Leptosphaeria nodorum 24 hr after fungicide treatments. After inoculation the plants were kept in 100% relative humidity (one day in a dark dew chamber followed by two days in a lighted dew chamber at 20° C.) to permit spores to germinate and infect the leaf. The plants were then transferred to a greenhouse set at 20° C. for disease to develop. Fungicide formulation, application and disease assessment followed the procedures as described in the Example A.

[2] = tested on: Blumeria graminis f. sp. hordei; experiment: Barley powdery mildew (ERYSGH) fungicidal activity; settings: 24 h, 1 Day Protectant, read-out: Disease Control ERYSGH 1DP
Protocol: Technical grades of materials were dissolved in acetone, which were then mixed with nine volumes of water containing 110 ppm Triton X-100. The fungicide solutions were applied onto wheat seedlings using an automated booth sprayer to run-off. All sprayed plants were allowed to air dry prior to further handling. Wheat plants (variety Yuma) were grown from seed in a greenhouse in 50% mineral soil/50% soil-less Metro mix until the first leaf was fully emerged, with 7-10 seedlings per pot. These plants were inoculated with an aqueous spore suspension of Septoria tritici either prior to or after fungicide treatments. After inoculation the plants were kept in 100% relative humidity (one day in a dark dew chamber followed by two to three days in a lighted dew chamber at 20° C.) to permit spores to germinate and infect the leaf. The plants were then transferred to a greenhouse set at 20° C. for disease to develop. When disease symptoms were fully expressed on the 1st leaves of untreated plants, infection levels were assessed on a scale of 0 to 100 percent disease severity. Percent disease control was calculated using the ratio of disease severity on treated plants relative to untreated plants. Evaluation of Fungicidal Activity: Barley Powdery Mildew (Blumeria Graminis f. sp. Hordei; Synonym: Erysiphe Graminis f. sp. Hordei; Bayer Code […]) Barley seedlings (variety Harrington) were propagated in soil-less Metro mix, with each pot having 8 to 12 plants, and used in the test when first leaf was fully emerged. Test plants were inoculated by dusting with infected stock plants 24 hr after fungicide treatments. After inoculation the plants were kept in a greenhouse set at 20° C. for disease to develop. Fungicide formulation, application and disease assessment on the sprayed leaves followed the procedures as described in the Example A.

Erysiphe cichoracearum = experiment: Powdery mildew of cucumber (ERYSCI) fungicidal activity; settings: Golovinomyces cichoracearum, 24 h, 1 Day Protectant, read-out: Disease Control ERYSCI 1DP
Protocol: Technical grades of materials were dissolved in acetone, which were then mixed with nine volumes of water containing 110 ppm Triton X-100. The fungicide solutions were applied onto wheat seedlings using an automated booth sprayer to run-off. All sprayed plants were allowed to air dry prior to further handling. Wheat plants (variety Yuma) were grown from seed in a greenhouse in 50% mineral soil/50% soil-less Metro mix until the first leaf was fully emerged, with 7-10 seedlings per pot. These plants were inoculated with an aqueous spore suspension of Septoria tritici either prior to or after fungicide treatments. After inoculation the plants were kept in 100% relative humidity (one day in a dark dew chamber followed by two to three days in a lighted dew chamber at 20° C.) to permit spores to germinate and infect the leaf. The plants were then transferred to a greenhouse set at 20° C. for disease to develop. When disease symptoms were fully expressed on the 1st leaves of untreated plants, infection levels were assessed on a scale of 0 to 100 percent disease severity. Percent disease control was calculated using the ratio of disease severity on treated plants relative to untreated plants. Evaluation of Fungicidal Activity: Powdery Mildew of Cucumber (Erysiphe cichoracearum; Bayer Code […]) Cucumber seedlings (variety Bush Pickle) were grown in soil-less Metro mix, with one plant per pot, and used in the test when 12 to 14 days old. Plants were inoculated with a spore suspension 24 hr following fungicide treatments. After inoculation the plants remained in the greenhouse set at 20° C. until disease was fully expressed. Fungicide formulation, application and disease assessment on the sprayed leaves followed the procedures as described in the Example A.

Compound | pest or weed control at 100 ppm [1] [%] | pest or weed control at 100 ppm (Leptosphaeria nodorum) [%] | pest or weed control at 100 ppm [2] [%] | pest or weed control at 100 ppm (Erysiphe cichoracearum) [%]
COc1ccnc(C(=O)N[C@H]2COC[C@H](Cc3ccccc3)[C@@H](OC(=O)C3CC3)[C@H](C)OC2=O)c1OCOC(C)=O [Compound 38] | 0 to 80 | 80 to 100 | 80 to 100 | 0 to 80
COc1ccnc(C(=O)N[C@H]2COC[C@H](Cc3ccccc3)[C@@H](OC)[C@H](C)OC2=O)c1OCOC(C)=O [Compound 39] | 0 to 80 | 80 to 100 | 0 to 80 | 0 to 80

Source: US8835462B2, “Macrocyclic picolinamides as fungicides” (Dow AgroSciences LLC, priority 2012, dated 2014)
